The assay in a line: Evaluated for critical micellular concentration (CMC) by dye solubilization method.
On to `CC(C1CC1C(=O)O)C1CC[C@H]2[C@@H]3[C@@H](O)CC4C[C@H](O)CCC4(C)[C@H]3CCC12C` (stereo partly drawn), for which the CMC was 15.5 mM.

`CC(C1CC1C(=O)NCCS(=O)(=O)O)C1CC[C@H]2[C@@H]3[C@@H](O)CC4C[C@H](O)CCC4(C)[C@H]3CCC12C` (stereo partly drawn) registered a CMC of 14.5 mM.

Consider `CC(CCC(=O)NCCS(=O)(=O)O)C1CC[C@H]2[C@@H]3[C@@H](O)CC4C[C@H](O)CCC4(C)[C@H]3CCC12C` (stereo partly drawn), for which the CMC stood at 18 mM.

Source of the values: ChEMBL document CHEMBL1122893, “Bile acids with cyclopropane-containing side chain. 2. Synthesis and properties of 3 alpha,7 beta-dihydroxy-22,23-methylene-5 beta-cholan-24-oic acid (2-sulfoethyl)amide” (J Med Chem, 1985).
